Laboratory results reported in patent US6767558B2, “Inhibiting oxidative degradation of pharmaceutical formulations” (Pfizer Inc., priority 2000, dated 2004).

Key:
[1] = Accelerated stability of Compound 1 tablets; oxidative degradation by-products by RPLC; format: physicochemical; conditions: addition of ferrous ion source to the formulation, six weeks
Experimental: Compound 1 was formulated with, inter alia, excipients comprising about 0.01% by weight of ammonium ferrous sulfate hexahydrate into solid binary pharmaceutical formulations as follows. A solution of 350 mg of ferrous ammonium sulfate hexahydrate, dissolved in 100 ml of pure water, was added to 500 g of microcrystalline cellulose (Avicel®; FMC; Philadelphia, Pa.) and the mixture was mixed thoroughly for about ten minutes. The mixture was then dried in an Aeromatic fluid-bed dryer (Niro Inc.; Columbia, Md.) at an inlet temperature of 65° C. The dried Avicel® excipient so prepared comprising the ferrous ion source was milled through a Mini-Comil 193 (Quadro Engineering; Waterloo, Ontario, Canada) with a stainless steel screen. This identical procedure was employed to prepare excipients comprising lactose and the ferrous ion source. A pre-determined amount of Compound 1, the dried Avicel® or lactose excipient comprising the ferrous ion source, and crospovidone (BASF Corp.; Mount Olive, N.J.) were added to a stainless steel V-blender and blended for about 20 minutes. Magnesium stearate was then added and the resulting mixture was blended for an additional five minutes. […]

[2] = Accelerated stability of Compound 2 formulations; N-oxide degradation product by RPLC; format: physicochemical; conditions: addition of ferrous ion source to the formulations, six weeks
Experimental: Compound 2 was similarly formulated with, inter alia, excipients comprising about 0.01% of ferrous ammonium sulfate hexahydrate into solid binary pharmaceutical formulations. The excipients further included microcrystalline cellulose (Avicel®), lactose, or silicified microcrystalline cellulose (Prosolv®; Penwest Pharmaceuticals; Patterson, N.Y.).
The formulations so prepared were then stored under accelerated stability conditions, i.e. at 40° C. at 75% relative humidity and 50° C. at 20% relative humidity for six weeks. Reversed-phase ion pair liquid chromatography (RPLC) was used to separate Compound 2 from its N-oxide oxidative degradation product. RPLC was performed utilizing a Waters Symmetry C18 column (Waters Instrument Co.; Milford, Mass.) 15 cm length×3.9 mm I.D. at a temperature of 40° C. using a mobile phase of buffer (20 mM KH2PO4 (pH adjusted to 3.0 with phosphoric acid, with 0.1% octanesulfonic acid): acetonitrile (60:40 v/v), a flow rate of 1.0 mL/min., and an injection volume of 10 μL at a run time of 35 minutes. [drawing 2]

| formation of M+16 and M+32 oxidative degradation by-products on addition of the ferrous ion source [1] | formation of N-oxide oxidative degradation by-product on addition of the ferrous ion source [2] | Structure (SMILES) |
| --- | --- | --- |
| inhibited significantly |  | COc1ccc(C(C)C)cc1CN[C@H]1C2CCN(CC2)[C@H]1C(c1ccccc1)c1ccccc1 [Compound 1, (2S,3S)-N-(5-isopropyl-2-methoxyphenyl)methyl-2-diphenylmethyl-1-azabicyclo[2.2.2]octan-3-amine] |
|  | inhibited significantly | Oc1ccc2c(c1)CC[C@H](c1ccccc1)[C@@H]2c1ccc(OCCN2CCCC2)cc1 (relative stereo) [Compound 2, cis-6-phenyl-5-[4-(2-pyrrolidin-1-yl-ethoxy)-phenyl]-5,6,7,8-tetrahydronaphthalen-2-ol] |
